Reference: patent publication US12240811B2, “N-heterocyclic five-membered ring-containing capsid protein assembly inhibitor, pharmaceutical composition and uses thereof” (CHIA TAI TIANQING PHARMACEUTICAL GROUP CO., LTD., priority 2019, dated 2025)

Tests used:
[1] = Plasma protein binding assay, dog plasma; type: in vitro ADME
Protocol: Formulation of plasma sample: 495 μL of blank plasmas of the corresponding species (mouse, rat, dog, monkey, and human) were drawn respectively, and thereto was added 5 μL of the corresponding test compound solution or positive control to give plasma sample solutions having a plasma drug concentration of the compound of 1 μM, and 10 μM, respectively (formulated with acetonitrile).
The pre-treated dialysis membrane was placed in a high-throughput equilibrium dialysis device, and 100 μL of the plasma sample solution and PBS buffer solution were drawn and added respectively to both sides of the dialysis membrane (sample side and buffer side) (n=3). After the equilibration device was sealed with a film, it was incubated at 37° C. overnight (100 rpm). After dialysis equilibrium was reached, 50 μL samples were drawn from the sample side and the buffer side, respectively, and the reaction was terminated by adding ice acetonitrile containing an internal standard.
(§1) Sample pre-treatment: To 50 μL of the plasma-side sample was added 450 μL of ice acetonitrile containing an internal standard, and then precipitated. After vortexing for 5 minutes, the sample was centrifugated (12000 rpm, 4° C.) for 10 minutes. 75 μL of the supernatant was pipetted, and 75 μL of ultrapure water was added thereto for dilution and mixed uniformly. 1 μL of the resulting solution was injected for analysis. […]

[2] = target: CYP 2B6 (Homo sapiens (Human), UniProt P20813); experiment: CYP450 enzyme inhibition study, CYP 2B6; type: in vitro ADME; conditions: human liver microsomes; read-out: Subtypes IC50 2B6
Sequence of CYP 2B6 (P20813 whole entry): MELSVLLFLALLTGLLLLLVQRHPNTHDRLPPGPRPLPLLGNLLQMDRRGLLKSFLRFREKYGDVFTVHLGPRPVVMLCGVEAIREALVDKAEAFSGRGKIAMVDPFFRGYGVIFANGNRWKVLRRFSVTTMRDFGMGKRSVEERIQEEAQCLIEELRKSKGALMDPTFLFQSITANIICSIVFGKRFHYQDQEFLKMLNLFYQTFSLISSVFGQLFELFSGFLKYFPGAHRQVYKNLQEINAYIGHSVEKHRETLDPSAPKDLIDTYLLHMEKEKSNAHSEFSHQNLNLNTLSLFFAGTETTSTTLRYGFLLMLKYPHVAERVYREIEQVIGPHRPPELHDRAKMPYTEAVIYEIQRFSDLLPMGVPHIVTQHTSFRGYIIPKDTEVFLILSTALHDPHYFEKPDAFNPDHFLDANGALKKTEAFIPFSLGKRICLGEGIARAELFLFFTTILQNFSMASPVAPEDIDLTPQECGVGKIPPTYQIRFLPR
Protocol: (§2) 500 μL of a final incubation system contains 50 μL of human liver microsomes (protein concentration: 0.2 mg/mL, Corning), 1 μL of mixed CYP450 specific substrates (CYP1A2, CYP 2B6, CYP 2C9, CYP2C19, CYP 2D6, and CYP 3A4), 398 μL PBS buffer (pH7.4), 1 μL specific positive inhibitor (positive control group) or the test compound (formulated with acetonitrile), and 50 μL NADPH+MgCl2. Duplicate incubation systems of 0.5 mL each were formulated for each CYP450 subtype. A total volume of 450 μL of a uniformly mixed solution of the substrate and the enzyme was formulated in each tube, and the solution and NADPH were pre-incubated at 37° C. for 5 minutes, respectively. Then 50 μL of the mixed solution of NADPH+MgCl2 was added for reaction. 50 μL of the reaction solution was taken out at 30 minutes, and the reaction was terminated with 300 μL of ice acetonitrile containing an internal standard. In addition, two control groups of 500 μL each without NADPH were prepared in parallel as a negative control group.
as §1, with “incubated” for “plasma-side”, “300” for “450”, “uniformly.” for “uniformly. 1 μL of the resulting solution was injected for analysis.”

[3] = tested on: HBV DNA in HepAD38 cells; experiment: In vitro cell HBV DNA inhibitory activity in HepAD38 cells; type: cell-based; conditions: Hepatitis B virus, 144 h, 6 days treatment, intracellular capsid HBV DNA by qPCR, read-out: EC50, anti-HBV activity in HepAD38 cells
Protocol: (§3) A bottle of HepG2.2.15 (Wuhan Institute of Virology) or HepAD38 cells in good exponential growth state was taken, washed once by adding 5 mL PBS, and then thereto was added 3 mL trypsin. After digesting at room temperature for 5 min, 2 mL trypsin was discarded, and then the sample was placed in a cell culture incubator and digested for 10 min. The cells were taken out and observed under a microscope (whether the cells were individually round and there was no adhesion between the cells). 10 mL complete medium was added to terminate the digestion. After pipetting into a single cell suspension, 10 μL of the cell suspension was taken out for cell counting with a cell counter, and then diluted with a complete medium and adjusted to a cell density of 1*10^5 cells/mL. […]
(§4) Compounds dissolved in DMSO were subjected to two-fold gradient dilution (10 concentrations in total) with complete medium. […] After lysing at room temperature for 10 min, DNA was extracted, and HBV DNA in the intracellular viral capsid was measured by real-time fluorescence quantitative PCR. The inhibition rate was calculated based on the Ct value, and the EC50 value was calculated by the four-parameter method.

[4] = target: CYP 2D6 (Homo sapiens (Human), UniProt P10635); experiment: CYP450 enzyme inhibition study, CYP 2D6; type: in vitro ADME
Sequence of CYP 2D6 (P10635 whole entry): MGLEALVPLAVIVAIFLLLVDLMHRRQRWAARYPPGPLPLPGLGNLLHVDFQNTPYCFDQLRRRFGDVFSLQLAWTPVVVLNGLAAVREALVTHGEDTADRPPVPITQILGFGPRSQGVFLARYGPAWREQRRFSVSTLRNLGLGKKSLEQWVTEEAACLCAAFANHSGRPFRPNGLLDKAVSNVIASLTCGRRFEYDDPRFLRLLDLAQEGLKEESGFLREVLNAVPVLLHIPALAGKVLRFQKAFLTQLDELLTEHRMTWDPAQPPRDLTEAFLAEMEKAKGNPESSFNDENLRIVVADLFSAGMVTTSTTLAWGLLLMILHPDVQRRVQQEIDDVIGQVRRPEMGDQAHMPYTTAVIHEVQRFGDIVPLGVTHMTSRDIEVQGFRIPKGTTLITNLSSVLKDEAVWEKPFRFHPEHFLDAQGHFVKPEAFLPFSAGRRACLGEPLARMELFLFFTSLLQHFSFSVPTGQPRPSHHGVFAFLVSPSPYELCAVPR
Protocol: as §2
as §1, with “incubated” for “plasma-side”, “300” for “450”, “uniformly.” for “uniformly. 1 μL of the resulting solution was injected for analysis.”

[5] = Stability of liver microsomes in vitro, rat; type: in vitro ADME
Protocol: 300 μL of a final incubation system contains 30 μL of liver microsomes (protein concentration: 0.15 mg/mL, Corning), 30 μL NADPH+MgCl2, 3 μL substrate (formulated with acetonitrile), and 237 μL PBS buffer. Duplicate incubation systems of 0.3 mL each were formulated for each species. A total volume of 270 μL of a uniformly mixed solution of the substrate and the enzyme was formulated in each tube, the solution and NADPH were pre-incubated at 37° C. for 5 minutes, respectively. Then 30 μL of the mixed solution of NADPH+MgCl2 was added for reaction. 50 μL of the reaction solution was taken out at 0, 10, 30, and 60 mins, and the reaction was terminated with 300 μL of ice acetonitrile containing an internal standard.
Sample pre-treatment: To 50 μL of the incubated sample was added 300 μL of ice acetonitrile containing diazepam as an internal standard and then precipitated. After vortexing for 5 minutes, the sample was centrifugated (12000 rpm, 4° C.) for 10 minutes. 75 μL of the supernatant was pipetted into a 96-well plate, and then diluted with 75 μL ultrapure water and mixed uniformly. 0.5 μL of the resulting solution was injected and analyzed by LC-MS/MS.

[6] = tested on: HBV DNA in HepG2.2.15 cells; experiment: In vitro cell HBV DNA inhibitory activity in HepG2.2.15 cells; type: cell-based; conditions: Hepatitis B virus, 144 h, 6 days treatment, intracellular capsid HBV DNA by qPCR, read-out: EC50, anti-HBV activity in HepG2.2.15 cells
Protocol: as §3, §4

## Cc1[nH]c(C(=O)C(=O)N[C@@H](C)C(F)(F)F)c(C)c1C(=O)Nc1ccc(F)c(C#N)c1 [Example 1, (S)—N-(3-cyano-4-fluorophenyl)-2,4-dimethyl-5-(2-oxo-2-((1,1,1-trifluoroprop-2-yl)amino)acetyl)-1H-pyrrole-3-carboxamide]
[1]; 1 μM
  Binding rate (%) Dog: 94.0%
[1]; 10 μM
  Binding rate (%) Dog: 93.9%
[2]
  IC50: > 200000 nM
[3]
  EC50: 24 nM
[4]
  IC50: 54000 nM
[5]
  Remaining (%) of rat liver microsomes at 60 min: 99%
[6]
  EC50: 17.4 nM
